Measurements as given in EPA's ToxRefDB 2.

Legend:
rat [1] = details: Subchronic oral toxicity in rodents, sprague dawley, Gavage/Intubation, dose end: 6 week, group: systemic
dog [2] = details: Subchronic oral toxicity in nonrodent, beagle, Gavage/Intubation, dose end: 6 week, group: systemic
rat [3] = details: Chronic toxicity, sprague dawley, Oral, Gavage/Intubation, dose end: 39 week, group: systemic
rat [4] = details: Sub-acute repeat dose toxicity, wistar, Oral, Gavage/Intubation, dose end: 28 day
mouse [5] = details: Combined chronic toxicity/carcinogenicity; other; Oral; Gavage/Intubation; dose end: 10 month; group: systemic; systemic / pathology microscopic / liver / neoplastic nodule + systemic / pathology microscopic / liver / dysplasia
dog [6] = details: Chronic toxicity, beagle, Oral, Capsule, dose end: 40 week, group: systemic
rat [7] = details: Sub-acute repeat dose toxicity, other, Oral, Gavage/Intubation, dose end: 30 day
mouse [8] = details: Carcinogenicity, b6c3f1, Oral, Feed, dose end: 2 year, group: systemic
mouse [9] = details: Subchronic oral toxicity in rodents, b6c3f1, Feed, dose end: 13 week, group: systemic, systemic / in life observation / body weight / body weight
rat [10] = details: Subchronic oral toxicity in rodents, fischer, Feed, dose end: 13 week, group: systemic
rat [11] = details: Combined chronic toxicity/carcinogenicity; fischer; Oral; Feed; dose end: 2 year; group: systemic; systemic / pathology microscopic / liver / degeneration + systemic / pathology microscopic / liver / hyperplasia + systemic / pathology …
[12] = systemic / clinical chemistry / bilirubin / total bilirubin + systemic / hematology / neutrophils / neutrophils + systemic / in life …
[13] = systemic / in life observation / body weight / body weight + systemic / in life observation / body weight / body weight gain + systemic / in…
[14] = systemic / in life observation / clinical signs / feces, discoloration + systemic / in life observation / clinical signs / salivation + …
[15] = systemic / in life observation / clinical signs / salivation + systemic / organ weight / epididymis / absolute + systemic / organ weight / …
[16] = systemic / organ weight / [other] / absolute + systemic / organ weight / [other] / relative to body weight + systemic / pathology gross / …
[17] = group: maternal, reproductive / reproductive performance / estrous cycle / abnormal
[18] = group: systemic, systemic / clinical chemistry / albumin / albumin + systemic / clinical chemistry / cholesterol / cholesterol + systemic / clinical …
[19] = group: systemic, systemic / clinical chemistry / cholesterol / cholesterol + systemic / clinical chemistry / thyroid stimulating hormone (thyrotropin) (tsh…
[20] = systemic / in life observation / body weight / body weight gain + systemic / pathology gross / liver / fat vacuolation + systemic / …
[21] = systemic / pathology microscopic / blood / [other] + systemic / clinical chemistry / alanine aminotransferase (alt/sgpt) / alanine …
[22] = group: maternal, reproductive / reproductive performance / estrous cycle / abnormal + reproductive / reproductive performance / estrous cycle / length
[23] = group: maternal, reproductive / reproductive performance / estrous cycle / length
[24] = group: systemic, systemic / clinical chemistry / follicle stimulating hormone (fsh) / follicle stimulating hormone (fsh) + systemic / in life observation / …
[25] = group: systemic, systemic / organ weight / adrenal gland / relative to body weight + systemic / organ weight / ovary / relative to body weight + systemic / …
[26] = systemic / pathology microscopic / liver / necrosis
[27] = systemic / pathology microscopic / liver / necrosis + systemic / pathology microscopic / liver / adenoma/carcinoma combined + systemic / …
[28] = systemic / in life observation / body weight / body weight
[29] = systemic / in life observation / body weight / body weight + systemic / in life observation / food consumption / food consumption + systemic…

For `N#Cc1ccc(N(CC(N)=O)CC(F)(F)F)cc1C(F)(F)F`, the LOAEL (rat [1]; [12]) was > 30 mg/kg/day, the NOAEL (rat [1]; [12]) was ≥ 30 mg/kg/day and the LEL (rat [1]; [13]) was 1 mg/kg/day. For the same molecule, the NEL (rat [1]; [13]) was < 1 mg/kg/day, the LOAEL (dog [2]; [14]) was > 3 mg/kg/day and the NOAEL (dog [2]; [14]) was ≥ 3 mg/kg/day. The LEL (dog [2]; [15]) was 0.3 mg/kg/day and the NEL (dog [2]; [15]) was < 0.3 mg/kg/day.

For `C[C@]12CCC(=O)C=C1CC[C@@H]1[C@@H]2CC[C@@]2(C)[C@H]1CC[C@]2(C)O` [17-Methyltestosterone], the LOAEL (rat [3]; [16]) was > 40 mg/kg/day, the NEL (rat [3]; [16]) was 2 mg/kg/day and the NOAEL (rat [3]; [16]) was ≥ 40 mg/kg/day. The LEL (rat [3]; systemic / pathology gross / testes / reduced size + systemic / in life observation / body weight / body weight gain + systemic / in life …) was 10 mg/kg/day, the LEL (rat [4]; [17]) was 100 mg/kg/day and the LOAEL (rat [4]; [17]) was > 600 mg/kg/day. The NEL (rat [4]; [17]) was 10 mg/kg/day, the NOAEL (rat [4]; [17]) was ≥ 600 mg/kg/day and the LOAEL (rat [4]; [18]) was > 200 mg/kg/day. For the same molecule, the NOAEL (rat [4]; [18]) was ≥ 200 mg/kg/day, the LEL (rat [4]; [19]) was 10 mg/kg/day and the NEL (rat [4]; [19]) was < 10 mg/kg/day. The LEL (mouse [5]) was 5 mg/kg/day, the LOAEL (mouse [5]) was > 5 mg/kg/day and the NEL (mouse [5]) was < 5 mg/kg/day. The NOAEL (mouse [5]) was ≥ 5 mg/kg/day, the LOAEL (dog [6]; [20]) was > 6 mg/kg/day and the NOAEL (dog [6]; [20]) was ≥ 6 mg/kg/day. The LEL (dog [6]; [21]) was 2 mg/kg/day, the NEL (dog [6]; [21]) was < 2 mg/kg/day and the LOAEL (rat [7]; [22]) was > 80 mg/kg/day. The NOAEL (rat [7]; [22]) was ≥ 80 mg/kg/day, the LEL (rat [7]; [23]) was 5 mg/kg/day and the NEL (rat [7]; [23]) was < 5 mg/kg/day. The LOAEL (rat [7]; [24]) was > 80 mg/kg/day, the NOAEL (rat [7]; [24]) was ≥ 80 mg/kg/day and the LEL (rat [7]; [25]) was 5 mg/kg/day. For the same molecule, the NEL (rat [7]; [25]) was < 5 mg/kg/day.

With `O=C(O)C1C(C(=O)O)C2(Cl)C(Cl)=C(Cl)C1(Cl)C2(Cl)Cl` (configuration not stated) [Chlorendic acid] the LOAEL (mouse [8]; [26]) was 89 mg/kg/day, the NOAEL (mouse [8]; [26]) was < 89 mg/kg/day and the LEL (mouse [8]; [27]) was 89 mg/kg/day. The NEL (mouse [8]; [27]) was < 89 mg/kg/day, the LEL (mouse [9]) was 188 mg/kg/day and the LOAEL (mouse [9]) was 188 mg/kg/day. The NEL (mouse [9]) was < 188 mg/kg/day, the NOAEL (mouse [9]) was < 188 mg/kg/day and the LEL (rat [10]; [28]) was 63 mg/kg/day. The LOAEL (rat [10]; [28]) was 63 mg/kg/day, the NEL (rat [10]; [29]) was 31 mg/kg/day and the NOAEL (rat [10]; [29]) was 31 mg/kg/day. The LEL (rat [11]) was 27 mg/kg/day, the LOAEL (rat [11]) was 27 mg/kg/day and the NEL (rat [11]) was < 27 mg/kg/day. For the same molecule, the NOAEL (rat [11]) was < 27 mg/kg/day.
